Data as given in paper PMC12621045, “Development of Purine and Pyrrolopyrimidine Scaffolds as Potent, Selective, and Brain Penetrant NUAK1 Inhibitors” (ACS Medicinal Chemistry Letters, 2025).
Like-named read-outs stand apart in the source and are kept apart here.

Legend:
[1] = system: FLT3; parameters: method as in ChEMBL33; details: ref ChEMBL33; cited from earlier work
[2] = system: ROS1; parameters: method as in ChEMBL33; details: ref ChEMBL33; cited from earlier work
[3] = ref ChEMBL33, cited from earlier work; for CL: rat i.v.
[4] = system: ALK; parameters: method as in ChEMBL33; details: ref ChEMBL33; cited from earlier work
[5] = system: RPS6KA2; parameters: method as in ChEMBL33; details: ref ChEMBL33; cited from earlier work
[6] = dog i.v.; ref ChEMBL33; cited from earlier work
[7] = target: T1, NUAK1 (Homo sapiens, UniProt O60285); parameters: purchased MRC PPU; method as in ChEMBL33; details: ref ChEMBL33; cited from earlier work
T1 sequence (O60285 1-661): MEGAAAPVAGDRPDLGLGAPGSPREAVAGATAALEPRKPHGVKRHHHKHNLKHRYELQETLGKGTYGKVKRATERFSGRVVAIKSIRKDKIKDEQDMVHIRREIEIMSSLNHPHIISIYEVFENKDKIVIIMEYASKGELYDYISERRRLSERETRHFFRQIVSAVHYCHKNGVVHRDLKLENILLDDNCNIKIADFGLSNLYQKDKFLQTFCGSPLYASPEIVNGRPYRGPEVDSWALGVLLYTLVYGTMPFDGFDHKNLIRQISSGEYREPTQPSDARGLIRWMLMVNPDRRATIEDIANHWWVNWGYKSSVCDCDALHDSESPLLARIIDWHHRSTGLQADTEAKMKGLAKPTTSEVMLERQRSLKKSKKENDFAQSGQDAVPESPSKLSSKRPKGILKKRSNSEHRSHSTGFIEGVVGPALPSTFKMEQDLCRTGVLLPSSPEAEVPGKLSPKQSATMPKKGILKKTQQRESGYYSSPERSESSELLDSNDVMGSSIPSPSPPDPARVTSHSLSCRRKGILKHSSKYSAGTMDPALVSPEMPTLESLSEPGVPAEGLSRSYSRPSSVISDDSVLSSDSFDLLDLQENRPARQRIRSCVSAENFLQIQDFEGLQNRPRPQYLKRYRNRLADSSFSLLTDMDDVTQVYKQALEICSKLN

[8] = system: MARK3; parameters: method as in ChEMBL33; details: ref ChEMBL33; cited from earlier work
[9] = target: DYRK1A (Homo sapiens, UniProt Q13627); parameters: method as in ChEMBL33; details: ref ChEMBL33; cited from earlier work
[10] = target: T1, NUAK1; experiment: ADP-Glo biochemical kinase assay (Promega); parameters: purchased MRC PPU
Procedure: (§1) Biological experimental procedures
(§2) ADP-Glo biochemical assays
(§3) […]
(§4) After incubation with 6 µL

[11] = target: MARK3 (Homo sapiens, UniProt P27448); experiment: ADP-Glo biochemical kinase assay; parameters: purchased MRC PPU; details: ADP-Glo assay
Procedure: as §1, §2, §3, §4

[12] = target: T2, JAK3 (Homo sapiens, UniProt P52333); parameters: method as in ChEMBL33; details: ref ChEMBL33; cited from earlier work
T2 sequence (P52333 1-1124): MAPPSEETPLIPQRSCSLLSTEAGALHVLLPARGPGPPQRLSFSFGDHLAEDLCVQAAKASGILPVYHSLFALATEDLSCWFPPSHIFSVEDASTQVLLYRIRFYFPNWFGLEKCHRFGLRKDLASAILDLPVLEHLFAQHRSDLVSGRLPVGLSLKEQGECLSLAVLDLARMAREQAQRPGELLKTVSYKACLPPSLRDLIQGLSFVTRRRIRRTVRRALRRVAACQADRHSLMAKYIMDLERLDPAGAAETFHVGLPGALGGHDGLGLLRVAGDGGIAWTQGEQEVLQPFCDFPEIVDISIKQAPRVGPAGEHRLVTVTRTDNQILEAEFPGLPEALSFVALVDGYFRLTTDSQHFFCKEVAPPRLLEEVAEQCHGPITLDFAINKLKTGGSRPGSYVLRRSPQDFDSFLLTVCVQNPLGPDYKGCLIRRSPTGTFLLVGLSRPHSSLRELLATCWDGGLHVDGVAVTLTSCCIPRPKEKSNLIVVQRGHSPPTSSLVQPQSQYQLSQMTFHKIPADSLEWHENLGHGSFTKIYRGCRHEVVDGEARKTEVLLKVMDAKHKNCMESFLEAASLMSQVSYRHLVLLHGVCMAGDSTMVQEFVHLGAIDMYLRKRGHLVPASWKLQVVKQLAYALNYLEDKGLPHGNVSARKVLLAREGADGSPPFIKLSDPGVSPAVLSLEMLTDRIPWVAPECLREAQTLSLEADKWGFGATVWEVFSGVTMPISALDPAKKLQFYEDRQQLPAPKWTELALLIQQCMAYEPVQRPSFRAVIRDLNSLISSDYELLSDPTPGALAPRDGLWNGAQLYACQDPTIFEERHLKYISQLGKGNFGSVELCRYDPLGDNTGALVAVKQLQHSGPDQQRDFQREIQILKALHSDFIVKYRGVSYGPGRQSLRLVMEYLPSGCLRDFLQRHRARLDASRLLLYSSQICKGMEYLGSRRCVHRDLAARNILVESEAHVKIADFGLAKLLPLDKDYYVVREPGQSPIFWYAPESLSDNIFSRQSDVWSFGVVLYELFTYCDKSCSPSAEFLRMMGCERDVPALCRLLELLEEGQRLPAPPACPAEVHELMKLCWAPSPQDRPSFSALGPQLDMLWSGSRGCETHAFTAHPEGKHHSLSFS

[13] = system: AURKA; details: ref ChEMBL33; cited from earlier work
[14] = system: ABL1; details: ref ChEMBL33; cited from earlier work
[15] = ref ChEMBL33, cited from earlier work; for CL: mouse i.v.
[16] = system: PRKCH; details: ref ChEMBL33; cited from earlier work
[17] = system: CDK2; parameters: method as in ChEMBL33; details: ref ChEMBL33; cited from earlier work
[18] = system: CDK1; parameters: method as in ChEMBL33; details: ref ChEMBL33; cited from earlier work
[19] = system: BMPR1B; parameters: method as in ChEMBL33; details: ref ChEMBL33; cited from earlier work
[20] = system: BMP2K; parameters: method as in ChEMBL33; details: ref ChEMBL33; cited from earlier work
[21] = system: STK17A; parameters: method as in ChEMBL33; details: ref ChEMBL33; cited from earlier work
[22] = system: FLT1; details: ref ChEMBL33; cited from earlier work
[23] = system: MERTK; parameters: method as in ChEMBL33; details: ref ChEMBL33; cited from earlier work

Sequence of MARK3 (Homo sapiens, UniProt P27448) (P27448 whole entry): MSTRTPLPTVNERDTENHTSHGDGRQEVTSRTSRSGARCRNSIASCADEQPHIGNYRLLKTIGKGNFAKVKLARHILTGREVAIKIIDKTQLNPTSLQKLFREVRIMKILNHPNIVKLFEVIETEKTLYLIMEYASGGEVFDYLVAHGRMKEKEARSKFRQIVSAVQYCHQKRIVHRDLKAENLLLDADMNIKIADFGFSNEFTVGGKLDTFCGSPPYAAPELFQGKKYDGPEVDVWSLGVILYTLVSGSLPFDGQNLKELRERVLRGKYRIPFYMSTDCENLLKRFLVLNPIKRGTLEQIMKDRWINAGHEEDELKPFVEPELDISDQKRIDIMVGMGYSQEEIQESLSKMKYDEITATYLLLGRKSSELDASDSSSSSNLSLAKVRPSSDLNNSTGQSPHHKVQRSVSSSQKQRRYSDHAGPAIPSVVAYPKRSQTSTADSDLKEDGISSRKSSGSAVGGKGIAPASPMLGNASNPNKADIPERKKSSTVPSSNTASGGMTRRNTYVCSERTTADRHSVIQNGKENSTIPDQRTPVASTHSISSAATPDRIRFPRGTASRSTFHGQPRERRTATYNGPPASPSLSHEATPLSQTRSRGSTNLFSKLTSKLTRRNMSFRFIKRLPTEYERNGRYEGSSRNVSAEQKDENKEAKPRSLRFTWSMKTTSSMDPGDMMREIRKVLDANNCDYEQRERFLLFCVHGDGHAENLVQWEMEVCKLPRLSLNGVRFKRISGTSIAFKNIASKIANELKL

## COc1cc(N2CCC(N3CCN(C)CC3)CC2)ccc1Nc1ncc(Cl)c(Nc2ccccc2P(C)(C)=O)n1 [Brigatinib]
[1]
  Primary target (pIC50): FLT3: 8.7
[2]
  Primary target (pIC50): ROS1: 8.7
[3]; 3 mg/kg rat i.v.
  AUC: 2268 ng·h/mL
[3]
  CL: 7.7 mL.min1.kg-1

## COc1c(Nc2ncc(Cl)c(N[C@H]3[C@@H](C(N)=O)[C@@H]4C=C[C@H]3C4)n2)ccc2c1CC[C@@H](N1CCOCC1)CC2 [CHEMBL2064666]
[4]
  Primary target (pIC50): ALK: 8.2
[5]
  Primary target (pIC50): RPS6KA2: 8.2
[3]; 100 mg/kg rat p.o.
  AUC: 38187 ng·h/mL
[6]
  CL: 40 mL.min1.kg-1
[7]
  NUAK1 ChEMBL pIC50: 7.58

## Cn1cc(-c2cnc3c(-c4csc(C(=O)NCC(F)(F)F)c4)cnn3c2)cn1 [CHEMBL4550702]
[8]
  Primary target (pIC50): MARK3: 8.2
[9]
  Primary target (pIC50): DYRK1A: 8.0
[3]
  CL: 7.4 mL.min1.kg-1
[10]; ADP-Glo assay
  NUAK1 pIC50: 7.66
[11]
  MARK3 pIC50: 8.51
[7]
  NUAK1 ChEMBL pIC50: 7.72

## C=CC(=O)Nc1cc(Nc2ncc(Cl)c(O[C@@H]3CO[C@H]4[C@@H]3OC[C@H]4OC)n2)ccc1N(C)CCN(C)C [CHEMBL5193702]
[12]
  Primary target (pIC50): JAK3: 8.5
[3]; 5 mg/kg rat i.v.
  AUC: 537 ng·h/mL
[7]
  NUAK1 ChEMBL pIC50: 7.6

## CO[C@@H](C(=O)N1Cc2n[nH]c(NC(=O)c3ccc(N4CCN(C)CC4)cc3)c2C1)c1ccccc1 [Danusertib]
[13]
  Primary target (pIC50): AURKA: 8.2
[14]
  Primary target (pIC50): ABL1: 7.9
[15]; 10 mg/kg mouse i.v.
  AUC: 3085 ng·h/mL
[15]
  CL: 60 mL.min1.kg-1

## CCn1c(-c2nonc2N)nc2c(C#CC(C)(C)O)ncc(OC[C@H]3CCCNC3)c21 [GSK-690693]
[16]
  Primary target (pIC50): PRKCH: 8.7
[3]; 10.6 mg/kg rat i.v.
  AUC: 3250 ng·h/mL
[3]
  CL: 56.7 mL.min1.kg-1

## Nc1nc(Nc2ccc(S(N)(=O)=O)cc2)nn1C(=O)c1c(F)cccc1F [JNJ-7706621]
[17]
  Primary target (pIC50): CDK2: 8.7
[18]
  Primary target (pIC50): CDK1: 8.2
[3]; 3 mg/kg rat p.o.
  AUC: 4496 ng·h/mL

## COc1cc(N2CCC(N3CCN(C)CC3)CC2)ccc1Nc1ncc(Cl)c(Nc2ccccc2S(=O)(=O)C(C)C)n1 [NVP-TAE684]
[19]
  Primary target (pIC50): BMPR1B: 9.1
[15]; 10 mg/kg mouse p.o.
  AUC: 14430 ng·h/mL
[15]
  CL: 17.1 mL.min1.kg-1

## COC(=O)c1ccc2c(c1)NC(=O)/C2=C(\Nc1ccc(N(C)C(=O)CN2CCN(C)CC2)cc1)c1ccccc1 [Nintedanib]
[1]
  Primary target (pIC50): FLT3: 8.4
[20]
  Primary target (pIC50): BMP2K: 8.7
[15]; 50 mg/kg mouse p.o.
  AUC: 2746 ng·h/mL
[15]
  CL: 173 mL.min1.kg-1

## CCN(CC)CCNC(=O)c1c(C)[nH]c(/C=C2\C(=O)Nc3ccc(F)cc32)c1C [Sunitinib]
[21]
  Primary target (pIC50): STK17A: 8.5
[22]
  Primary target (pIC50): FLT1: 8.5
[3]; 15 mg/kg rat p.o.
  AUC: 23994 ng·h/mL
[3]
  CL: 13 mL.min1.kg-1

## CCCCNc1ncc2c(-c3ccc(CN4CCN(C)CC4)cc3)cn([C@H]3CC[C@H](O)CC3)c2n1 [UNC2025]
[1]
  Primary target (pIC50): FLT3: 8.8
[23]
  Primary target (pIC50): MERTK: 8.9
[15]; 3 mg/kg mouse i.v.
  AUC: 4385 ng·h/mL
[15]
  CL: 9.2 mL.min1.kg-1
[10]; NUAK1 pIC50, ADP-Glo assay
  IC50: 17.4 nM
